Measurements reported in patent publication US20110184188A1, “Insecticidal Benzenedicarboxamide Derivative” (priority 2008, published 2011).
Where two headings read alike, the source gives them in different places.

Key:
Format in all cases: in vivo
Lucilia cuprina = assay: Test to Lucilia cuprina (larvae on horse minced meat); details: effective ingredient concentration 100 ppm, read-out: insecticide activity (mortality)
Method: (§1) Solvent: dimethylsulfoxide
(§2) In order to prepare preparations of suitable active compounds, 10 mg of each of the active compounds was dissolved into 0.5 ml of the above solvent, and the resulting mixture was diluted to a prescribed concentration with water.
About 20 to 30 larvae of Lucilia cuprina were put into the test tube in which 1 cm^3 of horse minced meat and 0.5 ml of the aqueous solution of the compound prepared in the above were put. After a fixed time passed, the mortality of the Lucilia cuprina was obtained. 100% mortality means that all the individuals were dead, and 0% mortality means that all the individuals were alive.

Musca domestica = assay: Test to Musca domestica (adults, sugar sponge); details: effective ingredient concentration 100 ppm, read-out: insecticide activity (mortality)
Method: as §1, §2
As a preparative stage of the test, a fixed size of sponge was soaked in a mixture of sugar and the compound aqueous solution prepared in the above, and was placed in a test container. Ten adults of Musca domestica were put into the container, and the container was closed with a cap having ventilation holes. After a fixed time passed, a mortality rate of Musca domestica was acquired. 100% mortality means that all the individuals were dead, and 0% mortality means that all the individuals were alive.

[1] = test system: Spodoptera litura third instar larvae; assay: Test to larva of Spodoptera litura (sweet potato leaf dip); details: foliar, 168 h, read-out: insect mortality
Method: Test to Larva of Spodoptera litura
(§3) Solvent: dimethylformamide 3 parts by weight Emulsifier: polyoxyethylene alkyl phenyl ether 1 part by weight
(§4) In order to prepare preparations of suitable active compounds, 1 part by weight of each of the active compounds was blended with the above amount of the solvent containing the above amount of the emulsifier, and the resulting mixture was diluted to a prescribed concentration with water.
Leaves of sweet potato were immersed in the tested liquid medication of a prescribed concentration diluted with water. After air drying of the liquid medication, the leaves were put into a petri dish of a diameter of 9 cm, and 10 Spodoptera litura third instar larvae were released in the petri dish, and the petri dish was placed in a constant temperature room of 25° C. Two days later and four days later, leaves of sweet potato were added. Seven days later, the number of dead insects was examined, and insect mortality was calculated.
In the present test, results of 2 petri dishes for each compound were averaged.

[2] = test system: Myzus persicae resistant to organophosphorus pesticide and carbamate agent; assay: Test to Myzus persicae resistant to organophosphorus pesticide and carbamate agent (egg plant seedlings); details: 168 h, effective ingredient concentration 100 ppm, seven days after spraying, read-out: pesticide effect, insect mortality
Method: Test to Myzus persicae resistant to organophosphorus pesticide and carbamate agent
as §3, §4
On egg plant seedlings planted in a plastic pot of a diameter of 6 cm, 30 bred Myzus persicae resistant to organophosphorus pesticide and carbamate agent per one seedling were inoculated. After 1 day elapsed since the inoculation, a sufficient amount of the solution diluted with water and having a prescribed concentration of the active compound was sprayed. After the spraying, the pot was allowed to stand in a greenhouse of 28° C. After seven days elapsed since the spraying, insect mortality was calculated. The test was carried out twice.

Myzus persicae = assay: Test to Myzus persicae (Brassica pekinensis leaf disc spray); details: foliar, read-out: pesticide effect, insect mortality
Method: Solvent: acetone 78.0 parts by weight and dimethylformamide 1.5 parts by weight Emulsifier: alkyl aryl polyglycol ether 0.5 parts by weight
as §4
On a leaf disc of Brassica pekinensis, Myzus persicae including all growth stage was inoculated. The solution diluted with water and having a prescribed concentration of the active compound was sprayed by a spray gun. Insect mortality was calculated after prescribed days elapsed. 100% insect mortality means that all the individuals died, and 0% insect mortality means that all the individuals were alive.

[3] = Spodoptera litura third instar larvae, active ingredient concentration 20 ppm, seven days later, 25° C.

`CSC[C@H](C)NC(=O)c1c(Br)cccc1C(=O)Nc1ccc(Cn2cc(C(F)(F)C(F)(F)F)c(C(F)(F)C(F)(F)F)n2)cc1C` [13-132, N^1-(4-{[3,4-bis(pentafluoroethyl)-1H-pyrazol-1-yl]methyl}-2-methylphenyl)-3-bromo-N^2-[(1S)-1-methyl-2-(methylthio)ethyl]-1,2-benzenedicarboxamide] was tested, and the mortality at 100 ppm (Lucilia cuprina) was ≥ 80%, the mortality at 100 ppm (Musca domestica) was ≥ 70% and the mortality at 20 ppm [1, 3] was 100%.

With `Cc1cc(Cn2cc(C(F)(F)C(F)(F)F)c(C(F)(F)C(F)(F)F)n2)ccc1NC(=O)c1cccc(Br)c1C(=O)N[C@@H](C)C[S+](C)[O-]` (stereo partly drawn) [13-137, N^1-(4-{[3,4-bis(pentafluoroethyl)-1H-pyrazol-1-yl]methyl}-2-methylphenyl)-3-bromo-N^2-[(1S)-1-methyl-2-(methylsulfinyl)ethyl]-1,2-benzenedicarboxamide] the mortality at 100 ppm (Lucilia cuprina) was ≥ 80%, the mortality at 100 ppm (Musca domestica) was ≥ 70% and the mortality at 20 ppm [1, 3] was 100%.

For `CSC[C@H](C)NC(=O)c1c(C#N)cccc1C(=O)Nc1ccc(Cn2nc(C(F)(F)F)cc2C(F)(F)F)cc1C` [13-172, N^1-(4-{[3,5-bis(trifluoromethyl)-1H-pyrazol-1-yl]methyl}-2-methylphenyl)-3-cyano-N^2-[(1S)-1-methyl-2-(methylthio)ethyl]-1,2-benzenedicarboxamide], the mortality at 100 ppm [2] was 100%, the mortality at 100 g/ha (Myzus persicae) was ≥ 70% and the mortality at 20 ppm ([1]; Spodoptera litura) was 100%.
